Test results taken from US10251854B2, “S-(carboxymethyl)-cysteine pharmaceutical compound and preparation method and use thereof” (Guangzhou Baiyunshan Pharmaceutical Holdings Co., Ltd. …, priority 2013, dated 2019).

What was measured:
Type in all cases: in vivo
Conditions in all cases: x ± SD
rat COPD model [1] = assay: Rat COPD model: antioxidation indexes (GSH, SOD)
Protocol: (§1) 1.1 Preparation of Rat COPD Models
(§2) A method of establishing a rat COPD model by fumigation plus endotoxin lipopolysaccharide (LPS) endotracheal drop, which is commonly used at home and abroad at present was adopted. The period is 3 months (90 days). Specific method: on the 1st, the 15th, the 29th, the 43rd, the 57th, the 71st and the 85th days of the test, the rats were anesthetized with ethylether, the roots of tongues of the rats were pulled out, and LPS (200 ug/200 ul) was dripped through tracheas by bend gavage needle heads. The rats of the normal group were dripped with physiological saline of equal amount by the same method, and weren't fumigated. The rats of the other five groups were fumigated in a self-made fumigation bin. One side of the fumigation bin was externally connected with a negative pressure pump, and the top thereof was connected with a port for inserting cigarettes. With the negative press pump turned on, the cigarettes were lit, and the smoke of the cigarettes was absorbed into the fumigation bin. In order to prevent the animals from death caused by anoxia, 12 cigarettes were lit every time, and the lid of the fumigation bin was opened 20 min after fumigation for letting in fresh air. The operation was performed 1 h/3 times/day, with the LPS (200 ug/200 ul) being dripped through the tracheas by bend gavage needle heads.
(§3) 1.2 Pharmacological Intervention
(§4) The test was 90 days long. The pharmacological intervention was started from the 15th day, the rats of the positive group were perfused with carbocisteine, the rats of the low, medium and high test groups were perfused with different doses of test medicines, and the rats of the model group and the normal group were perfused with physiological saline of equal amount.
(§5) 1.3 Indexes Determination
(§6) Blood was taken from the orbit of each rat on the second day after the test was over, serum was separated, a complete stomach was cut and washed, lung tissue was preserved, the stomach and the right upper lung were left for pathobiology test, after the rest of the lung was subjected to lung tissue homogenate, the indexes of oxidization and antioxidation, the contents of lipid peroxide (LPO), malondialdehyde (MDA) and reduced glutathione (GSH), the activity of superoxide dismutase (SOD) and the concentration of inflammatory medium TNF-α, IL-8 and IL-6 were detected.

rat COPD model [2] = assay: Rat COPD model: oxidization indexes (LPO, MDA)
Protocol: as §1, §2, §3, §4, §5, §6

rat COPD model [3] = assay: Rat COPD model: inflammation indexes (TNF-α, IL-8, IL-6)
Protocol: as §1, §2, §3, §4, §5, §6

N.N.N[C@H](CSCC(=O)O)C(=O)O.O [D-ammonium, S-(carboxymethyl)-D-cysteine ammonium salt monohydrate]
GSH Lung tissue (rat COPD model [1]; high dose group): 120.13 ± 25.76 µmol/L
GSH Serum (rat COPD model [1]; high dose group): 158.76 ± 29.50 µmol/L
SOD Lung tissue (rat COPD model [1]; high dose group): 70.51 ± 20.90 U/mL
SOD Serum (rat COPD model [1]; high dose group): 98.28 ± 19.15 U/mL
GSH Lung tissue (rat COPD model [1]; low dose group): 94.54 ± 17.50 µmol/L
GSH Serum (rat COPD model [1]; low dose group): 120.16 ± 17.05 µmol/L
SOD Lung tissue (rat COPD model [1]; low dose group): 52.17 ± 16.44 U/mL
SOD Serum (rat COPD model [1]; low dose group): 72.30 ± 12.66 U/mL
GSH Lung tissue (rat COPD model [1]; medium dose group): 109.68 ± 24.63 µmol/L
GSH Serum (rat COPD model [1]; medium dose group): 131.33 ± 24.17 µmol/L
SOD Lung tissue (rat COPD model [1]; medium dose group): 60.31 ± 14.12 U/mL
SOD Serum (rat COPD model [1]; medium dose group): 88.85 ± 17.47 U/mL
LPO Lung tissue (rat COPD model [2]; high dose group): 17.33 ± 4.07 nmol/mL
LPO Serum (rat COPD model [2]; high dose group): 4.97 ± 1.74 nmol/mL
MDA Lung tissue (rat COPD model [2]; high dose group): 4.35 ± 0.63 µmol/mL
MDA Serum (rat COPD model [2]; high dose group): 7.05 ± 1.59 µmol/mL
LPO Lung tissue (rat COPD model [2]; low dose group): 20.35 ± 3.70 nmol/mL
LPO Serum (rat COPD model [2]; low dose group): 6.07 ± 1.55 nmol/mL
MDA Lung tissue (rat COPD model [2]; low dose group): 5.12 ± 1.11 µmol/mL
MDA Serum (rat COPD model [2]; low dose group): 8.28 ± 2.09 µmol/mL
LPO Lung tissue (rat COPD model [2]; medium dose group): 18.38 ± 2.86 nmol/mL
LPO Serum (rat COPD model [2]; medium dose group): 5.20 ± 0.96 nmol/mL
MDA Lung tissue (rat COPD model [2]; medium dose group): 4.90 ± 0.43 µmol/mL
MDA Serum (rat COPD model [2]; medium dose group): 7.75 ± 1.93 µmol/mL
IL-6 Lung tissue (rat COPD model [3]; high dose group): 13.83 ± 6.19 pg/mL
IL-6 Serum (rat COPD model [3]; high dose group): 7.93 ± 3.10 pg/mL
IL-8 Lung tissue (rat COPD model [3]; high dose group): 11.44 ± 1.64 pg/mL
IL-8 Serum (rat COPD model [3]; high dose group): 7.38 ± 1.54 pg/mL
TNF-α Lung tissue (rat COPD model [3]; high dose group): 21.33 ± 8.57 pg/mL
TNF-α Serum (rat COPD model [3]; high dose group): 17.19 ± 4.05 pg/mL
IL-6 Lung tissue (rat COPD model [3]; low dose group): 16.36 ± 4.78 pg/mL
IL-6 Serum (rat COPD model [3]; low dose group): 10.76 ± 2.90 pg/mL
IL-8 Lung tissue (rat COPD model [3]; low dose group): 13.09 ± 2.98 pg/mL
IL-8 Serum (rat COPD model [3]; low dose group): 8.56 ± 2.79 pg/mL
TNF-α Lung tissue (rat COPD model [3]; low dose group): 28.26 ± 12.06 pg/mL
TNF-α Serum (rat COPD model [3]; low dose group): 21.12 ± 4.11 pg/mL
IL-6 Lung tissue (rat COPD model [3]; medium dose group): 15.61 ± 4.40 pg/mL
IL-6 Serum (rat COPD model [3]; medium dose group): 9.09 ± 3.23 pg/mL
IL-8 Lung tissue (rat COPD model [3]; medium dose group): 11.90 ± 1.77 pg/mL
IL-8 Serum (rat COPD model [3]; medium dose group): 8.05 ± 1.72 pg/mL
TNF-α Lung tissue (rat COPD model [3]; medium dose group): 25.02 ± 10.89 pg/mL
TNF-α Serum (rat COPD model [3]; medium dose group): 19.86 ± 3.58 pg/mL

S-(carboxymethyl)-D-cysteine arginine salt monohydrate [D-arginine]
GSH Lung tissue (rat COPD model [1]; high dose group): 114.54 ± 20.57 µmol/L
GSH Serum (rat COPD model [1]; high dose group): 144.17 ± 27.40 µmol/L
SOD Lung tissue (rat COPD model [1]; high dose group): 62.24 ± 16.47 U/mL
SOD Serum (rat COPD model [1]; high dose group): 92.32 ± 20.65 U/mL
GSH Lung tissue (rat COPD model [1]; low dose group): 92.23 ± 13.38 µmol/L
SOD Lung tissue (rat COPD model [1]; low dose group): 46.86 ± 19.25 U/mL
SOD Serum (rat COPD model [1]; low dose group): 74.53 ± 8.70 U/mL
GSH Lung tissue (rat COPD model [1]; medium dose group): 107.77 ± 18.26 µmol/L
SOD Lung tissue (rat COPD model [1]; medium dose group): 54.4 ± 12.18 U/mL
SOD Serum (rat COPD model [1]; medium dose group): 83.74 ± 15.27 U/mL
LPO Lung tissue (rat COPD model [2]; high dose group): 18.74 ± 3.47 nmol/mL
LPO Serum (rat COPD model [2]; high dose group): 5.26 ± 0.88 nmol/mL
MDA Lung tissue (rat COPD model [2]; high dose group): 4.58 ± 0.66 µmol/mL
LPO Lung tissue (rat COPD model [2]; low dose group): 21.98 ± 2.16 nmol/mL
LPO Serum (rat COPD model [2]; low dose group): 6.32 ± 1.34 nmol/mL
MDA Lung tissue (rat COPD model [2]; low dose group): 5.21 ± 0.72 µmol/mL
MDA Serum (rat COPD model [2]; low dose group): 8.66 ± 2.20 µmol/mL
LPO Lung tissue (rat COPD model [2]; medium dose group): 20.62 ± 3.65 nmol/mL
LPO Serum (rat COPD model [2]; medium dose group): 5.80 ± 1.07 nmol/mL
MDA Lung tissue (rat COPD model [2]; medium dose group): 5.01 ± 0.41 µmol/mL
IL-6 Lung tissue (rat COPD model [3]; high dose group): 13.69 ± 4.33 pg/mL
IL-6 Serum (rat COPD model [3]; high dose group): 8.70 ± 2.35 pg/mL
IL-8 Lung tissue (rat COPD model [3]; high dose group): 10.82 ± 2.59 pg/mL
IL-8 Serum (rat COPD model [3]; high dose group): 7.74 ± 1.28 pg/mL
TNF-α Lung tissue (rat COPD model [3]; high dose group): 24.40 ± 6.09 pg/mL
TNF-α Serum (rat COPD model [3]; high dose group): 19.73 ± 6.08 g* pg/mL
IL-6 Lung tissue (rat COPD model [3]; low dose group): 17.03 ± 7.27 pg/mL
IL-6 Serum (rat COPD model [3]; low dose group): 11.07 ± 2.60 pg/mL
IL-8 Lung tissue (rat COPD model [3]; low dose group): 12.69 ± 2.33 pg/mL
IL-8 Serum (rat COPD model [3]; low dose group): 9.70 ± 1.35 pg/mL
TNF-α Lung tissue (rat COPD model [3]; low dose group): 30.10 ± 9.44 pg/mL
TNF-α Serum (rat COPD model [3]; low dose group): 23.12 ± 4.20 pg/mL
IL-6 Lung tissue (rat COPD model [3]; medium dose group): 15.44 ± 5.64 pg/mL
IL-6 Serum (rat COPD model [3]; medium dose group): 10.38 ± 3.54 pg/mL
IL-8 Lung tissue (rat COPD model [3]; medium dose group): 12.01 ± 2.11 pg/mL
IL-8 Serum (rat COPD model [3]; medium dose group): 8.26 ± 2.67 pg/mL
TNF-α Lung tissue (rat COPD model [3]; medium dose group): 28.28 ± 13.57 pg/mL
TNF-α Serum (rat COPD model [3]; medium dose group): 20.09 ± 5.10 pg/mL

S-(carboxymethyl)-L-cysteine arginine salt monohydrate [L-arginine]
GSH Lung tissue (rat COPD model [1]; high dose group): 128.45 ± 24.09 µmol/L
SOD Lung tissue (rat COPD model [1]; high dose group): 72.36 ± 14.55 U/mL
SOD Serum (rat COPD model [1]; high dose group): 116.34 ± 27.86 U/mL
GSH Lung tissue (rat COPD model [1]; low dose group): 102.45 ± 18.97 µmol/L
GSH Serum (rat COPD model [1]; low dose group): 134.21 ± 26.45 µmol/L
SOD Lung tissue (rat COPD model [1]; low dose group): 55.67 ± 13.29 U/mL
SOD Serum (rat COPD model [1]; low dose group): 82.67 ± 19.45 U/mL
GSH Lung tissue (rat COPD model [1]; medium dose group): 116.22 ± 22.73 µmol/L
GSH Serum (rat COPD model [1]; medium dose group): 159.33 ± 30.20 µmol/L
SOD Lung tissue (rat COPD model [1]; medium dose group): 65.44 ± 17.33 U/mL
SOD Serum (rat COPD model [1]; medium dose group): 93.20 ± 20.77 U/mL
LPO Lung tissue (rat COPD model [2]; high dose group): 16.09 ± 3.22 nmol/mL
LPO Serum (rat COPD model [2]; high dose group): 4.25 ± 0.99 nmol/mL
MDA Lung tissue (rat COPD model [2]; high dose group): 3.96 ± 0.57 µmol/mL
MDA Serum (rat COPD model [2]; high dose group): 6.79 ± 1.83 µmol/mL
LPO Lung tissue (rat COPD model [2]; low dose group): 19.66 ± 3.90 nmol/mL
LPO Serum (rat COPD model [2]; low dose group): 5.78 ± 1.65 nmol/mL
MDA Lung tissue (rat COPD model [2]; low dose group): 4.77 ± 0.72 µmol/mL
MDA Serum (rat COPD model [2]; low dose group): 8.02 ± 1.54 µmol/mL
LPO Lung tissue (rat COPD model [2]; medium dose group): 17.78 ± 2.98 nmol/mL
LPO Serum (rat COPD model [2]; medium dose group): 4.87 ± 1.90 nmol/mL
MDA Lung tissue (rat COPD model [2]; medium dose group): 4.40 ± 0.60 µmol/mL
MDA Serum (rat COPD model [2]; medium dose group): 7.34 ± 2.44 µmol/mL
IL-6 Lung tissue (rat COPD model [3]; high dose group): 12.77 ± 4.65 pg/mL
IL-6 Serum (rat COPD model [3]; high dose group): 6.69 ± 1.92 pg/mL
IL-8 Lung tissue (rat COPD model [3]; high dose group): 9.09 ± 1.89 pg/mL
IL-8 Serum (rat COPD model [3]; high dose group): 6.24 ± 1.89 pg/mL
TNF-α Lung tissue (rat COPD model [3]; high dose group): 20.36 ± 7.41 pg/mL
TNF-α Serum (rat COPD model [3]; high dose group): 15.7 ± 5.16 pg/mL
IL-6 Lung tissue (rat COPD model [3]; low dose group): 15.80 ± 6.02 pg/mL
IL-6 Serum (rat COPD model [3]; low dose group): 9.17 ± 3.08 pg/mL
IL-8 Lung tissue (rat COPD model [3]; low dose group): 11.88 ± 303 pg/mL
IL-8 Serum (rat COPD model [3]; low dose group): 8.56 ± 2.33 pg/mL
TNF-α Lung tissue (rat COPD model [3]; low dose group): 26.17 ± 8.33 pg/mL
TNF-α Serum (rat COPD model [3]; low dose group): 20.22 ± 4.77 pg/mL
IL-6 Lung tissue (rat COPD model [3]; medium dose group): 14.22 ± 5.13 pg/mL
IL-6 Serum (rat COPD model [3]; medium dose group): 7.66 ± 2.83 pg/mL
IL-8 Lung tissue (rat COPD model [3]; medium dose group): 9.98 ± 2.43 pg/mL
IL-8 Serum (rat COPD model [3]; medium dose group): 7.39 ± 2.02 pg/mL
TNF-α Lung tissue (rat COPD model [3]; medium dose group): 23.65 ± 11.21 pg/mL
TNF-α Serum (rat COPD model [3]; medium dose group): 18.6 ± 3.89 pg/mL
